Measured values: patent US6313177A, “D-mannitol derivatives as HIV aspartyl protease inhibitors” (Pharmacor Inc., priority 1999, dated 2001)
Where two headings read alike, the source gives them in different places.

Target: T1, recombinant HIV-1 protease (Human immunodeficiency virus type 1 group M subtype B, UniProt P04585)
T1 construct: recombinant HIV-1 protease; purchased Bachem Bioscience
Experiment: Fluorometric (FRET) enzymatic assay for the inhibition constant (Ki) against the HIV protease
Type: biochemical
From the text: Enzymatic Assay for Determining the Inhibition Constant (Ki) of Synthetic Compounds Prepared Against the HIV Protease
This is a fluorometric assay based on the cleavage by protease of a substrate carrying a donor group (EDANS, excitation at 340 nm and emission at 490 nm) and an acceptor group (DABCYL) on each side of the cleavage site, interacting together through fluorescence resonance energy transfer (FRET). Cleavage of the substrate by protease stops energy exchange between the two groups, resulting in a time-dependent increase in fluorescence intensity that is linearly related to the extent of substrate hydrolysis.
The enzymatic assay is done at 30° C. in a spectrophotometer microcuvet, in a total volume of 400 μL. The apparatus used for readings is a UV-visible Cary 1 spectrophotometer made by Varian. The reaction is run first in the absence of protease inhibitors for 2 min, using 355 μL of buffer at pH 4.7 (sodium acetate 100 mM, NaCl 1 M, EDTA 1 mM, DTT 1 mM, dimethylsulfoxide 10%, and BSA 1 mg/mL), 40 μL of substrate H-2930 from Molecular Probes (final concentration 10 μM) and 5 μL of recombinant HIV-1 protease (final concentration 18.3 nM) purchased from Bachem Bioscience. Fluorescence readings at […] are taken continuously during the reaction, allowing determination of the enzyme's initial velocity (v0). At the end of the 2 min incubation, the potential inhibitor at a defined concentration in a volume of 2 μL is added to the reaction, and fluorescence readings are taken for another 2 min, allowing determination of enzyme velocity (vi) in the presence of the inhibitory compound. Several concentrations of the putative inhibitors are tested in the assay. After calculation of vo and vi, the inhibition constant (Ki) of the compound is determined using the equation of Henderson: [formula]
and [I]=inhibitor concentration, [S ]=substrate concentration, Km=Michaelis-Menten constant, Kiapp =apparent Ki
Note that the Michaelis-Menten constant of HIV protease is determined by running the assay without inhibitors, using several concentrations of substrate, and plotting the results as a Cornish-Bowden graph with the ratio substrate concentration/velocity as the ordinate and substrate concentration as the abscissa.

[1] = Table 1, benzylated D-mannitol derivatives, pH 4.7, 30° C., substrate 10 μM, protease 18.3 nM

SMILES | Ki [1] | Ki
O[C@@H]([C@H](O)[C@@H](COCc1ccccc1F)OCc1ccc(F)cc1)[C@@H](COCc1ccccc1F)OCc1ccc(F)cc1 [Compound 40, 1,6-di-O-(2-fluorobenzyl)-2,5-di-O-(4-fluorobenzyl)-D-mannitol] | 0.28 µM | 
OCc1ccc(CO[C@H](COCc2ccccc2)[C@@H](O)[C@H](O)[C@@H](COCc2ccccc2)OCc2ccc(CO)cc2)cc1 [Compound 45, 1,6-di-O-benzyl-2,5-di-O-(4-hydroxymethylbenzyl)-D-mannitol] |  | 10 µM
NCc1ccc(CO[C@H](COCc2ccccc2)[C@@H](O)[C@H](O)[C@@H](COCc2ccccc2)OCc2ccc(CN)cc2)cc1 [Compound 46, 1,6-di-O-benzyl-2,5-di-O-(4-aminomethylbenzyl)-D-mannitol] | 27 µM | 
Cc1ccc(COC[C@@H](OCc2ccc(C)cc2)[C@@H](O)[C@H](O)[C@@H](COCc2ccc(C)cc2)OCc2ccc(C)cc2)cc1 [Compound 50, 1,2,5,6-tetra-O-(4-methylbenzyl)-D-mannitol] | > 1 µM | 
O[C@@H]([C@H](O)[C@@H](COCc1ccc(F)cc1)OCc1ccc(F)cc1)[C@@H](COCc1ccc(F)cc1)OCc1ccc(F)cc1 [Compound 52, 1,2,5,6-tetra-O-(4-fluorobenzyl)-D-mannitol] |  | 1.6 µM
O[C@@H]([C@H](O)[C@@H](COCc1cccc(F)c1)OCc1ccccc1)[C@@H](COCc1cccc(F)c1)OCc1ccccc1 [Compound 53, 1,6-di-O-(3-fluorobenzyl)-2,5-di-O-(benzyl)-D-mannitol] | 1.5 µM | 
Cc1ccc(CO[C@H](COCc2ccccc2F)[C@@H](O)[C@H](O)[C@@H](COCc2ccccc2F)OCc2ccc(C)cc2)cc1 [Compound 56, 1,6-di-O-(2-fluorobenzyl)-2,5-di-O-(4-methylbenzyl)-D-mannitol] | 3.5 µM | 
O[C@@H]([C@H](O)[C@@H](COCc1ccccc1F)OCc1cccc(F)c1)[C@@H](COCc1ccccc1F)OCc1cccc(F)c1 [Compound 57, 1,6-di-O-(2-fluorobenzyl)-2,5-di-O-(3-fluorobenzyl)-D-mannitol] | 1.5 µM | 

Results, then the molecule that gave them:

Ki [1] | Ki | SMILES
26 µM |  | O=C(O)c1ccc(CO[C@H](COCc2ccccc2)[C@@H](O)[C@H](O)[C@@H](COCc2ccccc2)OCc2ccc(C(=O)O)cc2)cc1 [Compound 43, 1,6-di-O-benzyl-2,5-di-O-(4-carboxybenzyl)-D-mannitol]
20 µM |  | NC(=O)c1ccc(CO[C@H](COCc2ccccc2)[C@@H](O)[C@H](O)[C@@H](COCc2ccccc2)OCc2ccc(C(N)=O)cc2)cc1 [Compound 44, 1,6-di-O-benzyl-2,5-di-O-(4-carboxamidobenzyl)-D-mannitol]
1.2 µM |  | OCc1ccc(COC[C@@H](OCc2ccccc2)[C@@H](O)[C@H](O)[C@@H](COCc2ccc(CO)cc2)OCc2ccccc2)cc1 [Compound 48, 1,6-di-(4-hydroxymethylbenzyl)-2,5-dibenzyl-D-mannitol]
28 µM |  | O=Cc1ccc(CO[C@H](COCc2ccccc2)[C@@H](O)[C@H](O)[C@@H](COCc2ccccc2)OCc2ccc(C=O)cc2)cc1 [Compound 49, 1,6-di-O-benzyl-2,5-di-O-(4-formylbenzyl)-D-mannitol]
5 µM |  | O=C(O)c1ccc(COC[C@@H](OCc2ccccc2)[C@@H](O)[C@H](O)[C@@H](COCc2ccc(C(=O)O)cc2)OCc2ccccc2)cc1 [Compound 51, 1,6-di-O-(4-carboxybenzyl)-2,5-di-O-benzyl-D-mannitol]
> 3 µM |  | O[C@@H]([C@H](O)[C@@H](COCc1ccc(Br)cc1)OCc1ccccc1)[C@@H](COCc1ccc(Br)cc1)OCc1ccccc1 [Compound 54, 1,6-di-O-(4-bromobenzyl)-2,5-di-O-benzyl-D-mannitol]
 | 5.2 µM | O[C@@H]([C@H](O)[C@@H](COCc1ccc(Cl)cc1)OCc1ccccc1)[C@@H](COCc1ccc(Cl)cc1)OCc1ccccc1 [Compound 55, 1,6-di-O-(4-chlorobenzyl)-2,5-di-O-benzyl-D-mannitol]
